Results: patent US10201530B2, “Treatment of BRCA1-defective cancer or resistant cancers” (City of Hope, priority 2014, dated 2019)
Where two headings read alike, the source gives them in different places.

Legend:
PARP1 protein = PARP1 protein level by Western blot; assay type: cell-based, human; conditions: HCC1937 cells irrespective of BRCA1 status, 4 h treatment
Procedure: For subcellular fractionation, cells were trypsinized and washed with cold PBS solution twice. […] Following centrifugation at 1,000 g for 5 min, the supernatant was collected (i.e., cytoplasmic fraction) and pellets were washed with the same buffer twice. The washed samples were extracted for 40 min on ice with fractionation buffer containing 0.5% NP-40 for nuclear fraction. All the samples were sonicated and clarified by centrifugation at 16,000 g for 15 min. Protein concentrations of all fractions were determined with Bio-Rad Protein Assay (Bio-Rad Laboratories, Hercules, Calif.). Immunoblotting was performed as described previously (21,22). Briefly, equal amounts of boiled protein samples were subjected to SDS-polyacrylamide gel electrophoresis (PAGE) and transferred onto nitrocellulose membranes (Bio-Rad Laboratories). Membranes were blocked for 1 hour in 3% BSA in Tris buffered saline containing 0.05% Tween 20 (TBST) and incubated for 1 hour with primary antibody (1:500 or 1:1000) diluted in TBST containing 1% BSA. After two washes with TBST, membranes were incubated for 1 hour with horseradish peroxidase-conjugated secondary Abs (1:3000 dilution) at room temperature. The immunoblots were visualized on film with the West-Q chemi-luminescence kit (GenDEPOT, Barker, Tex.).

zebrafish embryos = test: Zebrafish genotoxicity assay; assay type: in vivo, Danio rerio; conditions: wild-type zebrafish embryos, HU 0-50 mM
Procedure: Zebrafish (Danio rerio) were obtained from zebrafish Core facility of Taipei Medical University and maintained at 28° C. on a 14 h light/10 h dark cycle. Embryos were incubated at 28° C. and different developmental stages were determined as described (25). Wild-type embryos were treated with different concentrations of HU (0, 5, […], 20, 50 mM) or COH29 (0, 10, 20, 50, 100 μM) at 20 hpf to evaluate the mutagenic effect. Fifteen embryos were treated per well condition. […] Embryos were observed using an Olympus IX70-FLA inverted fluorescence microscope. Images were taken using SPOT digital camera system (Diagnostic Instruments, Sterling Heights, Mich., USA) and assembled with ImageJ software (26).

KB-7D = test: Cytotoxicity, KB-7D cells; assay type: cell-based, human; conditions: cisplatin-resistant, read-out: IC50, mean ± SEM
Procedure: (§1) All cell lines were acquired from the American Type Culture Collection (Manassas, Va., USA). Cells were maintained in RPMI 1640 medium (Mediatech) with 10% fetal bovine serum, 2 mM glutamine, and 100 U of penicillin and 100 μg of streptomycin per ml of medium (Sigma) at 37° C. in 5% CO2. To isolate HCC1437+BRCA1 cells, parental HCC1937 cells were transfected with pcDNA3.1 plasmid expressing full-length BRCA1 cDNA. Stable transfectant clones were selected and used for drug sensitivity assays. For stable transfection, cells at 30-40% confluence were incubated overnight with […] of plasmid DNA, using FUGENE® 6 transfectin reagent (Roche Molecular Biochemical, Monza, Italy) according to the manufacturer's instructions. Cells were then selected in puromycin (1 μg/ml) (Invitrogen life Technologies, La Jolla, Calif., USA.) After 20 to 30 days, viable puromycin-resistant colonies from HCC1937 transfections were expanded and screened. The clones that stably expressed […] and retained growth potential were assayed for BRCA1 expression by Western blot analysis. By Western blot analysis, we evaluated the restoration of BRCA1 expression in the puromycin-resistant cDNA/transfectant cells.
(§2) The MTT cytotoxicity assay was performed by incubating with MTT and monitoring the MTT formazan formed by viable cells with a microplate reader at a wavelength of 560 nm; the survival, ratio was determined using the formula: (Atest−Ablank)/(Acontrol−Ablank)×100%. The cytotoxicity was determined in 96-well plates using the semiautomatic fluorescence-based Digital Imaging Microscopy System (DIMSCAN). DIMSCAN uses digital imaging microscopy to quantify viable cells, which selectively accumulate FDA (fluorescein diacetate; Alfa Aesar, Ward Hill, Mass.). DIMSCAN is capable of measuring cytotoxicity over a 4 log dynamic range by quantifying total fluorescence per well (which is proportional to the number of viable cells) after elimination of the background fluorescence by digital thresholding and eosin Y (Mallinckrodt Baker, Center Valley, Pa.) quenching. Cells were seeded into 96-well plates in 100 μL of complete medium at 2,000 to 5,000 cells per well depending on cell line growth rate. After overnight incubation, test compound was added to each well at various concentrations in 50 μL of culture medium. After incubation with the drugs for 96 hours at 37° C., FDA (final concentration: 10 mg/mL) and eosin Y [final concentration: 0.1% (w/v)] were added to each well and the cells were incubated for an additional 20 minutes at 37° C. Total fluorescence per well was then measured using DIMSCAN, and the results were expressed as the ratio of the fluorescence in treated wells to the fluorescence in untreated wells (survival fraction).

A2780 = test: Cytotoxicity, A2780 cells; assay type: cell-based, human; conditions: A2780, cisplatin-sensitive ovarian cells, read-out: IC50, mean ± SEM
Procedure: as §1, §2

UWB1.289 + BRCA1 = test: Cytotoxicity, UWB1.289+BRCA1 cells; assay type: cell-based, human; conditions: read-out: IC50, mean ± SEM
Procedure: as §1
as §2, with “After incubation with the drugs for 96 hours at 37° C., FDA (final concentration: 10 mg/mL) and eosin Y [final concentration: 0.1% (w/v)] were added to each well and the cells were incubated for an additional 20 minutes at 37° C.” left out

TOV112D = test: Cytotoxicity, TOV112D cells; assay type: cell-based, human; conditions: read-out: IC50, mean ± SEM
Procedure: as §1, §2

MDA-MB-231 = test: Cytotoxicity, MDA-MB-231 cells; assay type: cell-based, human
Procedure: as §1, §2

OVCAR-3 = test: Cytotoxicity, OVCAR-3 cells; assay type: cell-based, human; conditions: read-out: IC50, mean ± SEM
Procedure: as §1, §2

A2780-DDDP = test: Cytotoxicity, A2780-DDDP cells; assay type: cell-based, human; conditions: cisplatin-resistant ovarian cells, read-out: IC50, mean ± SEM
Procedure: as §1, §2

UWB1.289 = test: Cytotoxicity, UWB1.289 cells; assay type: cell-based, human; conditions: read-out: IC50, mean ± SEM
Procedure: as §1
as §2, with “After incubation with the drugs for 96 hours at 37° C., FDA (final concentration: 10 mg/mL) and eosin Y [final concentration: 0.1% (w/v)] were added to each well and the cells were incubated for an additional 20 minutes at 37° C.” left out

OVCAR-4 = test: Cytotoxicity, OVCAR-4 cells; assay type: cell-based, human; conditions: read-out: IC50, mean ± SEM
Procedure: as §1, §2

KB-Gem = test: Cytotoxicity, KB-Gem cells; assay type: cell-based, human; conditions: gemcitabine-resistant, read-out: IC50, mean ± SEM
Procedure: as §1, §2

OV90 = test: Cytotoxicity (MTT/DIMSCAN), OV90 cells; assay type: cell-based, human; conditions: read-out: IC50, mean ± SEM
Procedure: as §1
as §2, with “After incubation with the drugs for 96 hours at 37° C., FDA (final concentration: 10 mg/mL) and eosin Y [final concentration: 0.1% (w/v)] were added to each well and the cells were incubated for an additional 20 minutes at 37° C.” left out

SKBR3 = test: Cytotoxicity, SKBR3 cells; assay type: cell-based, human
Procedure: as §1
(§3) The MTT cytotoxicity assay was performed by incubating with MTT and monitoring the MTT formazan formed by viable cells with a microplate reader at a wavelength of 560 nm; the survival, ratio was determined using the formula: (Atest−Ablank)/(Acontrol−Ablank)×100%. The cytotoxicity was determined in 96-well plates using the semiautomatic fluorescence-based Digital Imaging Microscopy System (DIMSCAN). DIMSCAN uses digital imaging microscopy to quantify viable cells, which selectively accumulate FDA (fluorescein diacetate; Alfa Aesar, Ward Hill, Mass.). DIMSCAN is capable of measuring cytotoxicity over a 4 log dynamic range by quantifying total fluorescence per well (which is proportional to the number of viable cells) after elimination of the background fluorescence by digital thresholding and eosin Y (Mallinckrodt Baker, Center Valley, Pa.) quenching. […]

HCC1937 + BRCA1 = test: Cytotoxicity, HCC1937+BRCA1 cells; assay type: cell-based, human
Procedure: as §1, §3

MCF-7 = test: Cytotoxicity, MCF-7 cells; assay type: cell-based, human
Procedure: as §1, §3

HCC1937 = test: Cytotoxicity, HCC1937 cells; assay type: cell-based, human
Procedure: as §1, §3

[1] = Homo sapiens, UWB1289, UWB1.289 + BRCA1
[2] = Homo sapiens, MDA-MB-231, TNBC, read-out: IC50, mean ± SEM
[3] = Homo sapiens, UWB1289, UWB1.289

C[C@]1(c2nc3c(C(N)=O)cccc3[nH]2)CCCN1 [ABT-888]
effect on PARP1 protein level (PARP1 protein): significant reduction of PARP1

NC(=O)NO [HU, hydroxyurea]
developmental defects (zebrafish embryos; COH29 0-100 μM): caused defects in eyes and heart by 4 dpf
number of mutant embryos (zebrafish embryos): dose-dependent increase in the number of mutant embryos

Nc1ccn([C@@H]2O[C@H](CO)[C@@H](O)C2(F)F)c(=O)n1 [Gemcitabine]
IC50 (KB-7D; Homo sapiens, KB7D): 0.69 ± 0.02 nM
IC50 (A2780; Homo sapiens): 25.5 ± 1.66 nM
IC50 (UWB1.289 + BRCA1; [1]): 42.2 ± 0.62 nM
IC50 (TOV112D; Homo sapiens): 28.4 ± 4.18 nM
IC50 (MDA-MB-231; [2]): 17 ± 1.33 nM
IC50 (OVCAR-3; Homo sapiens): 118 nM
IC50 (A2780-DDDP; Homo sapiens): 36.3 ± 0.79 nM
IC50 (UWB1.289; [3]): 56.48 ± 0.32 nM
IC50 (OVCAR-4; Homo sapiens): 55.1 ± 3.55 nM
IC50 (KB-Gem; Homo sapiens): 60 ± 10 nM
IC50 (OV90; Homo sapiens, OV-90, OV90): 78.3 ± 11.6 nM

N.N.[Cl][Pt][Cl] [Cisplatin]
IC50 (KB-7D): 7500 ± 300 nM
IC50 (SKBR3; SKBR3, ER− PR(−) HER2+): 990 ± 240 nM
IC50 (A2780): 690 nM
IC50 (UWB1.289 + BRCA1; UWB1.289 + BRCA1 (WT), COH29 72 h): 7400 ± 2020 nM
IC50 (TOV112D): 1320 ± 200 nM
IC50 (HCC1937 + BRCA1; HCC1937 + BRCA1, triple negative, COH29 72 h): 2930 ± 550 nM
IC50 (MDA-MB-231; MDA-MB-231, TNBC, read-out: IC50, mean ± SEM): 3740 ± 210 nM
IC50 (OVCAR-3): 1640 ± 40 nM
IC50 (A2780-DDDP): 5020 ± 1180 nM
IC50 (UWB1.289; UWB1.289, BRCA1-defective ovarian cancer cells, COH29 72 h): 1430 ± 870 nM
IC50 (MCF-7; MCF-7, ER+ PR(+)): 12.1 ± 1.02 µM
IC50 (HCC1937; HCC1937, triple negative, BRCA1 mutant, COH29 72 h): 2460 ± 110 nM
IC50 (OVCAR-4): 2250 ± 250 nM
IC50 (KB-Gem): 380 ± 30 nM
IC50 (OV90; OV90, wild-type BRCA1 ovarian cancer cells, COH29 72 h): 1570 ± 290 nM

CC(=O)O[C@H]1C(=O)[C@@]2(C)[C@H]([C@H](OC(=O)c3ccccc3)[C@]3(O)C[C@H](OC(=O)[C@H](O)[C@@H](NC(=O)c4ccccc4)c4ccccc4)C(C)=C1C3(C)C)[C@]1(OC(C)=O)CO[C@@H]1C[C@@H]2O [Paclitaxel]
IC50 (KB-7D; Homo sapiens, KB7D): 5.17 ± 0.17 nM
IC50 (SKBR3; Homo sapiens, SK-BR-3, SKBR3, Table 3 paclitaxel column): 3.37 ± 0.08 nM
IC50 (A2780; Homo sapiens): 3.6 ± 1.67 nM
IC50 (UWB1.289 + BRCA1; [1]): 13 ± 1.62 nM
IC50 (TOV112D; Homo sapiens): 6.45 ± 1.05 nM
IC50 (HCC1937 + BRCA1; Homo sapiens, HCC1937 + BRCA1, Table 3 paclitaxel column): 5.4 ± 0.07 nM
IC50 (MDA-MB-231; [2]): 2.01 ± 0.57 nM
IC50 (MDA-MB-231; Homo sapiens, MDA-MB-231, Table 3 paclitaxel column, read-out: IC50): 2.01 ± 0.57 nM
IC50 (OVCAR-3; Homo sapiens): 2.89 ± 0.07 nM
IC50 (A2780-DDDP; Homo sapiens): 11.4 ± 1.49 nM
IC50 (UWB1.289; [3]): 13.9 ± 0.7 nM
IC50 (MCF-7; Homo sapiens, MCF7, MCF-7, Table 3 paclitaxel column): 0.00636 ± 0.00111 µM
IC50 (HCC1937; Homo sapiens, HCC1937, Table 3 paclitaxel column): 4.04 ± 0.44 nM
IC50 (OVCAR-4; Homo sapiens): 5.55 ± 0.05 nM
IC50 (KB-Gem; Homo sapiens): 1.95 ± 0.15 nM
IC50 (OV90; Homo sapiens, OV-90, OV90): 9.09 ± 0.41 nM
